Experimental findings from article PMC2843403 (Bioorganic & medicinal chemistry, 2010) are described below.

For data set [1], the target named is T1, PKCδ C1B (Mus musculus, UniProt P28867). Description: Fluorescence quenching binding to PKCδ C1B. The following applies: fit of fluorescence quenching of PKCδ C1B (2 μM), Fig. 3.
Target sequence in this assay (P28867 231-280): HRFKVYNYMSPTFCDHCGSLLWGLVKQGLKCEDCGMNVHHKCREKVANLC
Data set [2] is described as follows: Solubility. In kind it is physicochemical.
The target of data set [3] is T1, PKCδ C1B. Kind of data set: Emission maximum of ligand in presence of PKCδ C1B. In kind it is binding. The following applies: buffer versus presence of C1B subdomain (590 to 560 nm).
Target sequence in this assay (P28867 231-280 limits assumed): as the sequence (P28867 231-280) above

In general, Hill coefficient refers to a measure of the steepness of the concentration-response curve. For `CCCCCCCCCCCCCC(=O)O[C@@H]1[C@@H](C)[C@@]2(O)[C@@H](C=C(CO)C[C@]3(O)C(=O)C(C)=C[C@@H]23)[C@@H]2C(C)(C)[C@]12OC(C)=O` [TPA, 12-O-tetradecanoylphorbol-13-acetate, reference compound], in data set [1], the Hill coefficient is 1.8.

As to `COc1cc(/C=C/C(=O)CC(=O)/C=C/c2ccc(O)c(OC)c2)ccc1O` [Compound 1, Curcumin], the Hill coefficient in data set [1] is 1.6. The Solubility in water entry in data set [2] is recorded as “poorly soluble”.

The molecule `CCCCCCCCCCCCCCCCOc1ccc(/C=C/C(O)=C/C(=O)/C=C/c2ccc(O)c(OC)c2)cc1OC` [Compound 4, (1E, 4Z, 6E)-7-(4-(hexadecyloxy)-3-methoxyphenyl)-5-hydroxy-1-(4-hydroxy-3-methoxyphenyl)hepta-1,4,6-trien-3-one] returned a Hill coefficient in data set [1] of 2. In data set [3], the “Blue shift of emission maximum” value was determined as 30 nm.
